Test results as given in patent US20050070510A1, “Substituted tetracycline compounds as synergistic antifungal agents” (Paratek Pharmaceuticals, Inc., priority 2001, published 2005).

These molecules were tested on COS-1 cells (assay: In vitro mammalian cytotoxicity assay (Resazurin)).

Row | SMILES | In Vitro Cytotoxicity
1 | CN(C)[C@@H]1C(O)=C(C(N)=O)C(=O)[C@@]2(C#N)C(O)=C3C(=O)c4c(ccc(N5CCCCC5)c4O)C[C@@]3(N)C[C@@]12N [SO] | ** (toxicities less than 25 μg/mL are represented by **)
2 | CCOc1ccc(-c2ccc(O)c3c2C[C@@]2(N)C[C@@]4(N)[C@H](N(C)C)C(O)=C(C(N)=O)C(=O)[C@@]4(C#N)C(O)=C2C3=O)cc1CNC(=O)NC(C)(C)C [QG] | * (toxicities greater than >25 μg/ml are represented by *)
3 | CCCCCC(=O)c1ccc(O)c2c1C[C@@]1(N)C[C@@]3(N)[C@H](N(C)C)C(O)=C(C(N)=O)C(=O)[C@@]3(C#N)C(O)=C1C2=O [MO] | ** (toxicities less than 25 μg/mL are represented by **)
4 | COC(=O)/C=C/c1ccc2c(c1O)C(=O)C1=C(O)[C@]3(C#N)C(=O)C(C(N)=O)=C(O)[C@@H](N(C)C)[C@]3(N)[C@@H](O)[C@]1(N)C2N (some centres unmarked) [AW] | ** (toxicities less than 25 μg/mL are represented by **)
5 | CCC(NCc1cc(N(C)C)c2c(c1O)C(=O)C1=C(O)[C@]3(C#N)C(=O)C(C(N)=O)=C(O)[C@@H](N(C)C)[C@]3(N)C[C@]1(N)C2)C(F)(F)F (some centres unmarked) [UM] | ** (toxicities less than 25 μg/mL are represented by **)
6 | CN(C)[C@@H]1C(O)=C(C(N)=O)C(=O)[C@@]2(C#N)C(O)=C3C(=O)c4c(O)cccc4[C@H](N)[C@@]3(N)[C@H]([S+](N)[O-])[C@@]12N (some centres unmarked) [BS] | ** (toxicities less than 25 μg/mL are represented by **)
7 | CN(C)c1cc(NCCc2ccccc2)c(O)c2c1C[C@@]1(N)C[C@@]3(N)[C@H](N(C)C)C(O)=C(C(N)=O)C(=O)[C@@]3(C#N)C(O)=C1C2=O [LN] | ** (toxicities less than 25 μg/mL are represented by **)
8 | Cc1cc(C)cc(-c2cc(N(C)C)c3c(c2O)C(=O)C2=C(O)[C@]4(C#N)C(=O)C(C(N)=O)=C(O)[C@@H](N(C)C)[C@]4(N)C[C@]2(N)C3)c1 [HD] | ** (toxicities less than 25 μg/mL are represented by **)
9 | CN(C)c1cc(C#CC2(O)CCCCC2)c(O)c2c1C[C@@]1(N)C[C@@]3(N)[C@H](N(C)C)C(O)=C(C(N)=O)C(=O)[C@@]3(C#N)C(O)=C1C2=O [FP] | * (toxicities greater than >25 μg/ml are represented by *)
10 | CN(C)[C@@H]1C(O)=C(C(N)=O)C(=O)[C@@]2(C#N)C(O)=C3C(=O)c4c(ccc(-c5cc6ccccc6[nH]5)c4O)[C@H](N)[C@@]3(N)[C@H]([S+](N)[O-])[C@@]12N (some centres unmarked) [BT] | ** (toxicities less than 25 μg/mL are represented by **)
11 | CN(C)[C@@H]1C(O)=C(C(N)=O)C(=O)[C@@]2(C#N)C(O)=C3C(=O)c4c(ccc(C5C=CCC5)c4O)C(N)[C@@]3(N)[C@H](O)[C@@]12N (some centres unmarked) [AY] | ** (toxicities less than 25 μg/mL are represented by **)
12 | CN(C)c1cc(CNC(=O)Nc2ccc(Cl)cc2)c(O)c2c1C[C@@]1(N)C[C@@]3(N)[C@H](N(C)C)C(O)=C(C(N)=O)C(=O)[C@@]3(C#N)C(O)=C1C2=O [MW] | ** (toxicities less than 25 μg/mL are represented by **)
13 | CN(C)[C@@H]1C(O)=C(C(N)=O)C(=O)[C@@]2(C#N)C(O)=C3C(=O)c4c(ccc(Nc5nc(-c6cccc([N+](=O)O)c6)cs5)c4O)C[C@@]3(N)C[C@@]12N [ED] | ** (toxicities less than 25 μg/mL are represented by **)
14 | C#CCOC(=O)Nc1cc(N(C)C)c2c(c1O)C(=O)C1=C(O)[C@]3(C#N)C(=O)C(C(N)=O)=C(O)[C@@H](N(C)C)[C@]3(N)C[C@]1(N)C2 [SL] | ** (toxicities less than 25 μg/mL are represented by **)
15 | COC(=O)C(CC(C)C)NCc1ccc(OC)c(-c2ccc(O)c3c2C[C@@]2(N)C[C@@]4(N)[C@H](N(C)C)C(O)=C(C(N)=O)C(=O)[C@@]4(C#N)C(O)=C2C3=O)c1 (some centres unmarked) [OA] | ** (toxicities less than 25 μg/mL are represented by **)
16 | CN(C)[C@@H]1C(O)=C(C(N)=O)C(=O)[C@@]2(C#N)C(O)=C3C(=O)c4c(ccc(NC5CCN(Cc6ccccc6)CC5)c4O)C[C@@]3(N)C[C@@]12N [SJ] | * (toxicities greater than >25 μg/ml are represented by *)
17 | CN(C)[C@@H]1C(O)=C(C(N)=O)C(=O)[C@@]2(C#N)C(O)=C3C(=O)c4c(O)ccc(-c5ccc(CN6CCOCC6)cc5)c4C[C@@]3(N)C[C@@]12N [HT] | * (toxicities greater than >25 μg/ml are represented by *)
18 | CN(C)[C@@H]1C(O)=C(C(N)=O)C(=O)[C@@]2(C#N)C(O)=C3C(=O)c4c(ccc(N(Cc5ccccc5)Cc5ccccc5)c4O)[C@H](N)[C@@]3(N)[C@H](O)[C@@]12N [BP] | ** (toxicities less than 25 μg/mL are represented by **)
19 | CN(C)c1cc(-c2ccc(C(N)=O)cc2)c(O)c2c1C[C@@]1(N)C[C@@]3(N)[C@H](N(C)C)C(O)=C(C(N)=O)C(=O)[C@@]3(C#N)C(O)=C1C2=O [ET] | ** (toxicities less than 25 μg/mL are represented by **)
20 | CCCCN(c1ccc2c(c1O)C(=O)C1=C(O)[C@]3(C#N)C(=O)C(C(N)=O)=C(O)[C@@H](N(C)C)[C@]3(N)[C@@H](O)[C@]1(N)[C@H]2N)C1CCN(C)CC1 [RX] | * (toxicities greater than >25 μg/ml are represented by *)
21 | COc1ccc(CNc2cc(N(C)C)c3c(c2O)C(=O)C2=C(O)[C@]4(C#N)C(=O)C(C(N)=O)=C(O)[C@@](N)(N(C)C)[C@]4(N)C[C@]2(N)C3)cc1O [TW] | * (toxicities greater than >25 μg/ml are represented by *)
22 | C=CCCNC(=O)NCc1cc(N(C)C)c2c(c1O)C(=O)C1=C(O)[C@]3(C#N)C(=O)C(C(N)=O)=C(O)[C@@H](N(C)C)[C@]3(N)C[C@]1(N)C2 [MD] | * (toxicities greater than >25 μg/ml are represented by *)
23 | CN(C)[C@@H]1C(O)=C(C(N)=O)C(=O)[C@@]2(C#N)C(O)=C3C(=O)c4c(O)ccc(CNCc5cccn5C)c4C[C@@]3(N)C[C@@]12N [SH] | * (toxicities greater than >25 μg/ml are represented by *)
24 | CN(C)[C@@H]1C(O)=C(C(N)=O)C(=O)[C@@]2(C#N)C(O)=C3C(=O)c4c(O)ccc(-c5ccc(NC(=O)CNC(C)(C)C)cc5)c4C[C@@]3(N)C[C@@]12N [UZ] | ** (toxicities less than 25 μg/mL are represented by **)
25 | CCCCN(c1ccc2c(c1O)C(=O)C1=C(O)[C@]3(C#N)C(=O)C(C(N)=O)=C(O)[C@@H](N(C)C)[C@]3(N)C[C@]1(N)C2)C1CCN(C)CC1 [RY] | * (toxicities greater than >25 μg/ml are represented by *)
26 | CCCCNC(=O)NCc1cc(N(C)C)c2c(c1O)C(=O)C1=C(O)[C@]3(C#N)C(=O)C(C(N)=O)=C(O)[C@@H](N(C)C)[C@]3(N)C[C@]1(N)C2 [MG] | * (toxicities greater than >25 μg/ml are represented by *)
27 | CN(C)CCN(C)Cc1ccc(-c2cc(N(C)C)c3c(c2O)C(=O)C2=C(O)[C@]4(C#N)C(=O)C(C(N)=O)=C(O)[C@@H](N(C)C)[C@]4(N)C[C@]2(N)C3)s1 [ST] | * (toxicities greater than >25 μg/ml are represented by *)
28 | CN(C)[C@@H]1C(O)=C(C(N)=O)C(=O)[C@@]2(C#N)C(O)=C3C(=O)c4c(ccc(NC(=O)OCC5c6ccccc6-c6ccccc65)c4O)[C@H](N)[C@@]3(N)[C@H](O)[C@@]12N [BK] | ** (toxicities less than 25 μg/mL are represented by **)
29 | Cc1ccc(/C=C/c2ccc(O)c3c2C[C@@]2(N)C[C@@]4(N)[C@H](N(C)C)C(O)=C(C(N)=O)C(=O)[C@@]4(C#N)C(O)=C2C3=O)cc1 [HA] | ** (toxicities less than 25 μg/mL are represented by **)
